{
  "source": "patent US8663621B2",
  "about": "“Identification and synthesis of a male-produced pheromone for the neotropical root weevil Diaperpes abbreviatus (coleoptera: curculionidae)” (The United States of America, as Represented by the …, priority 2012, dated 2014)",
  "key": {"[1]": {"test_system": "Diaprepes abbreviatus antenna (male and female)", "assay": "gas chromatograph-coupled electroantennogram detection (GC-EAD) of antennal response", "conditions": "for antennal response (GC-EAD) to peaks of headspace extract: hexane extract of headspace volatiles from adult males and citrus leaves (FIG. 2); for antennal response (GC-EAD): male and female antennae, 50 ng linalool and 100 ng synthetic compound in hexane (FIG. 4)", "excerpt": "In a first assay employed to find an attractive chemical of insect origin, a gas chromatograph-coupled electroantennogram detection (GC-EAD) system was used to analyze male aeration samples. This system included an Agilent 7890A GC equipped with a split/splitless injector, an HP-1 capillary column (approximately 30 m×0.32 mm×0.25 μm, Agilent Technologies, Inc., Santa Clara, Calif., USA), a post column glass Y-tube (Supelco, Bellefonte, Pa., USA) splitter for dividing column effluent in an approximately 1:1 ratio between a flame ionization detector (FID) and a heated (200° C.) EAD transfer line. Two lengths of deactivated column (approximately 0.32 mm ID) were used to carry effluent to the FID and EAD port after the split. At the start of GC-EAD runs, the GC oven temperature was held at about 35° C. for 3 minutes and then increased to about 260° C. at a rate of about 15° C./min and held at about 260° C. for about 10 min. Injector and FID temperatures were set at about 220° C. and about 300° C., respectively. Splitless injection was used with helium as the carrier gas at a flow rate of about 2.3 ml/min. A heated transfer line emptied into a charcoal-filtered, humidified air stream (about 200 ml/min at about 30 cm/sec) that carried the effluent over an antennal preparation. The antennal preparation can be made by plucking the antenna from either a male or female insect (grasping it firmly at the base of the antenna near the head with fine forceps) and placing the antenna between two metal electrodes of a Universal EAG probe, to which small amounts of salt-free electrode gel (Spectra 360, Parker Laboratories, Fairfield, N.J., USA) had been applied. The probe was connected to a type PRG-2 amplifier (Universal EAG probe, Syntech, Hilversum, The Netherlands). The humidified air stream was directed to pass over the antennal preparation generating a signal. […] […] […] […] Antennae from male and female D. abbreviatus were used as detectors to confirm antennal response to the synthetic compound."}, "[2]": {"test_system": "Diaprepes abbreviatus adults", "assay": "two-choice olfactometer behavioral bioassay", "assay_type": "in vivo", "conditions": "for Number choosing A (air) / Number choosing B (odor source): A: air vs B: odor source; for No choice (number): moved to but remained in central arena; for No response (number): remained in inlet", "procedure": "Behavioral response to the pheromone was tested in an olfactometer (Model 4C, ARS, Inc., Micanopy, Fla. USA) wherein individual weevils (starved for about 24 h) were placed in a glass inlet and allowed to walk upwards into the center of an arena with a balanced, filtered and humidified airflow from two arms oriented at 180° to each other and outfitted with glass reservoirs containing an odor source or blank. The assays were conducted in the dark between about 9 AM and 2 PM; each run was terminated when the weevil moved into one of the glass receptacles or when about 15 min had elapsed. Assays were run in the dark because of a strong phototropic response in this insect (Lapointe and Hall 2009). Weevil position was scored as no-response (remaining in the inlet), no-choice (moving to but remaining in the central arena) or choosing one of the two arms. Responses of unmated approximately 4 to 6-week-old males and females were recorded to various odor sources: fresh young citrus leaves (flush), flush fed upon for about 24 hr by male D. abbreviatus, approximately 30 μg of methyl (E)-3-(2-hydroxyethyl)-4-methyl-2-pentenoate in approximately 10:1 hexanes:ethyl acetate pipetted onto a glass slide, and a clean glass slide. All glass components of the olfactometer were thoroughly washed between runs with warm soap and water, rinsed with methanol and air-dried. Between replications of a given treatment, the arms of the olfactometer used for that treatment were switched to control for bias in the apparatus. The number of weevils choosing a treatment arm was compared with the control arm (clean air) by the G-test (Sokal and Rohlf 1994)."}, "[3]": {"assay": "stability of the pheromone (lactonization; acid, heat, storage)", "assay_type": "physicochemical", "conditions": "for stability in acidic medium (lactonization to 2): acid-catalyzed THP removal, CDCl3 with residual acidity", "procedure": "At the core of the chosen synthetic route lies a stereoselective carbocupration of α,β-acetylenic esters that was exclusively cis-stereospecific when the reaction was conducted in THF at low temperatures (Corey and Katzenellenbogen 1969, Bourque et al. 1999, Drew et al. 1999). However, a conjugate addition of a heterocuprate, formed in situ from isopropylmagnesium bromide and copper(I) iodide in the presence of N,N,N,N'-tetramethylethylenediamine ([…] et al. 1984), to the acetylenic ester (FIG. 1) proceeded with some loss of stereoselectivity resulting in a mixture of E and Z olefinic esters in an approximately 92:8 ratio. During acid-catalyzed removal of the tetrahydropyranyl (THP) protecting group, the ratio of 1E and 1Z dropped to approximately 86:14 and a considerable amount of lactone 2 was formed, thus indicating instability of the putative pheromone in acidic medium."}, "[4]": {"test_system": "Diaprepes abbreviatus antenna (male and female)", "conditions": "used as co-injected control for antenna viability; cited from earlier work"}},
  "note": "“Also recorded” adds a separate entry of the source.",
  "data": [
    {"smiles": "CC(C)=CCC/C(C)=C/C=O", "note": "[geranial, reference compound]", "values": [
      {"measurement": "antennal response (GC-EAD) to peaks of headspace extract", "setting": "[1]", "value": "positive antennal responses"}
    ]},
    {"smiles": "CC(C)=CCC/C(C)=C/CO", "note": "(single isomer, unassigned) [geraniol, reference compound]", "values": [
      {"measurement": "antennal response (GC-EAD) to peaks of headspace extract", "setting": "[1]", "value": "positive antennal responses"}
    ]},
    {"smiles": "COC(=O)/C=C(\\CCO)C(C)C", "note": "[methyl (E)-3-(2-hydroxyethyl)-4-methyl-2-pentenoate]", "values": [
      {"measurement": "Number choosing A (air)", "setting": "[2]; female weevils", "value": 17},
      {"measurement": "Number choosing B (odor source)", "setting": "[2]; female weevils", "value": 48},
      {"measurement": "No choice (number)", "setting": "[2]; female weevils", "value": 17},
      {"measurement": "No response (number)", "setting": "[2]; female weevils", "value": 71},
      {"measurement": "preference for odor source versus clean air (in words)", "setting": "[2]; female weevils, α=0.05, G-test", "value": "consistently moved upwind more often"},
      {"measurement": "preference for odor source versus clean air (in words)", "setting": "[2]; female weevils, α=0.05, G-test, listed as synthetic pheromone", "value": "more often as compared to clean air"},
      {"measurement": "Number choosing A (air)", "setting": "[2]; male weevils", "value": 30},
      {"measurement": "Number choosing B (odor source)", "setting": "[2]; male weevils", "value": 34},
      {"measurement": "preference for odor source versus clean air (in words)", "setting": "[2]; male weevils, listed as pheromone", "value": "did not show a clear preference"},
      {"measurement": "preference for odor source versus clean air (in words)", "setting": "[2]; male weevils, listed as synthetic pheromone", "value": "no clear preference"},
      {"measurement": "No choice (number)", "setting": "[2]; male weevils", "value": 20},
      {"measurement": "No response (number)", "setting": "[2]; male weevils", "value": 69},
      {"measurement": "antennal response (GC-EAD) to peaks of headspace extract", "setting": "[1]", "value": "elicit a response from male and female antennae"},
      {"measurement": "antennal response (GC-EAD)", "setting": "[1]", "value": "Both male and female antennae responded"},
      {"measurement": "stability in acidic medium (lactonization to 2)", "setting": "[3]; listed as 1E", "value": "noticeable cyclization of 1E to 2"},
      {"measurement": "stability in acidic medium (lactonization to 2)", "setting": "[3]; listed as putative pheromone", "value": "instability"},
      {"measurement": "thermal stability", "setting": "[3]; preparative GC with conventional injection port", "value": "thermal instability"},
      {"measurement": "storage stability", "setting": "[3]; purified sample, up to 25° C. in aprotic solvents (benzene, hexane, ethyl acetate)", "value": "stores indefinitely"}
    ]},
    {"smiles": "COC(=O)/C=C(/CCO)C(C)C", "note": "[methyl (Z)-3-(2-hydroxyethyl)-4-methyl-2-pentenoate]", "values": [
      {"measurement": "antennal response (GC-EAD)", "setting": "[1]", "value": "inactive"},
      {"measurement": "antennal response (GC-EAD)", "setting": "[1]; listed as Z isomer", "value": "No antennal response; also recorded: Neither responded"}
    ]},
    {"smiles": "CC(C)C1=CC(=O)OCC1", "note": "[lactone]", "values": [
      {"measurement": "antennal response (GC-EAD)", "setting": "[1]", "value": "No antennal response; also recorded: Neither responded"}
    ]},
    {"smiles": "C=CC(C)(O)CCC=C(C)C", "note": "(single isomer, unassigned) [linalool, reference compound]", "values": [
      {"measurement": "antennal response, previously determined", "setting": "[4]", "value": "consistent antennal response"},
      {"measurement": "antennal response (GC-EAD) to peaks of headspace extract", "setting": "[1]", "value": "positive antennal responses"},
      {"measurement": "antennal response (GC-EAD)", "setting": "[1]", "value": "Both male and female antennae responded"}
    ]}
  ]
}
